For one experiment, the target named is T1, 5-LO in bovine PMNL (Bos taurus, UniProt F1MQ78).
T1 construct: The purified PMNLs were suspended at a concentration of; endogenous in cells; host or cells: polymorphonuclear leukocytes isolated from bovine blood
T1 sequence (F1MQ78 1-674): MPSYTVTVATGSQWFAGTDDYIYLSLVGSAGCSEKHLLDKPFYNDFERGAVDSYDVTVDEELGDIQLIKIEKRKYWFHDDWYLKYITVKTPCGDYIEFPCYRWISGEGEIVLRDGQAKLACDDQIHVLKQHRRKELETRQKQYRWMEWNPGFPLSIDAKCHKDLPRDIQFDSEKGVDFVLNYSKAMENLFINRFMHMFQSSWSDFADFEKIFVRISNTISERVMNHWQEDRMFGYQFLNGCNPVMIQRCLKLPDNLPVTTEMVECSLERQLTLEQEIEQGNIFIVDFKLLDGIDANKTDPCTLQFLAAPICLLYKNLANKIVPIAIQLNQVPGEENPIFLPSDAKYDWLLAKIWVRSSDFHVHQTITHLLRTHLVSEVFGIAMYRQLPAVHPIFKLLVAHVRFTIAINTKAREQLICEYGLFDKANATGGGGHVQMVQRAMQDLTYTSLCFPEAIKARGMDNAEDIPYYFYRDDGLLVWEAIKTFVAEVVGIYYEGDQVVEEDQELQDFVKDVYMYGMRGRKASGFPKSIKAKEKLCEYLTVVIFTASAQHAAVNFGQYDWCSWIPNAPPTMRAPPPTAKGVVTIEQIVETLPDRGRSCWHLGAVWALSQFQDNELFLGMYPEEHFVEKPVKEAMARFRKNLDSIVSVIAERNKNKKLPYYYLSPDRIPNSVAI
The experiment can be described thus: Inhibition of 5-lipoxygenase (5-HETE and LTB4 biosynthesis) in Ca-ionophore-stimulated bovine PMNL. In kind it is cell-based. The following applies: N = 3 or more.

The next experiment concerns HaCaT cells. The experiment can be described thus: Antiproliferative activity against HaCaT cells (human keratinocyte cell line). In kind it is cell-based. The following applies: 48 h, read-out: AA IC50 (antiproliferative activity).

In the case of `COC(=O)CCCCc1ccc2c(c1O)C(=O)c1c(O)cccc1C2` [IVB, Methyl 5-(9,10-Dihydro-1,8-dihydroxy-9-oxo-2-anthracene)pentanoate], the IC50 (commonly the concentration needed to halve the response being measured) against 5-LO in bovine PMNL was above 30 µM; with HaCaT cells, 1.8 µM.

As to `COC(=O)CCCCCc1ccc2c(c1O)C(=O)c1c(O)cccc1C2` [VB, Methyl 6-(9,10-Dihydro-1,8-dihydroxy-9-oxo-2-anthracene) hexaonate], at 5-LO in bovine PMNL, the IC50 is above 30 µM.

`CC(C(=O)N(C)O)c1ccc2c(c1O)C(=O)c1c(O)cccc1C2` (stereo not drawn) [VIID, N-Hydroxy-N-methyl-2-(9,10-dihydro-1,8-dihydroxy-9-oxo-2-anthracene)propionamide]: the IC50 against 5-LO in bovine PMNL amounted to 4 µM; with HaCaT cells, 1.5 µM.

For the compound `COC(=O)C(c1ccc2c(c1O)C(=O)c1c(O)cccc1C2)C(C)C` (stereo not drawn) [VIIIB, Methyl 2-(9,10-Dihydro-1,8-dihydroxy-9-oxo-2-anthracene)-3-methylbutanoate], at 5-LO in bovine PMNL, the IC50 is above 30 µM.
